Experiments:
[1] = system: IFNα induced TYK2/JAK1 mediated STAT activation; assay: Luciferase assay in L929 ISRE cells stimulated with IFN-α; type: cell-based; conditions: IFN-α 100 ng/mL; for inhibition at 0.05 µM / inhibition at 0.2 µM / inhibition at 1 µM: Mus musculus; for inhibition at 0.05 µM: read-out: Inhibitory activity % (50 nM); for inhibition at 0.2 µM: read-out: Inhibitory activity % (200 nM); for inhibition at 1 µM: read-out: Inhibitory activity % (1000 nM)
Experimental: • 1. L929 ISRE cells (5000 cells/well) were seeded on 96-well plates and incubated overnight at room temperature-; • 2. The cells were pretreated by adding different concentrations (10 nM, 50 nM, 100 nM, 200 nM or 1000 nM) of the test compounds for 2 hours; • 3. Added IFN-α (100 ng/mL) to stimulate cells for 6 hours; • 4. Removed the upper medium, add PBS (100 μL) and washed, then removed PBS; • 5. Added PLB lysis solution (50 μL) to each well, shook the well for 15 minutes; • 6. Transferred PLB lysis solution (30 μL) to a new 96-well whiteboard, added LAR II reagent (LAR II), then quickly read the 450 nm OD value with a plate washer; • 7. Added Stop & Glo reagent (30 μL), then read the 450 nm OD value using the plate washer. • 8. The final result was the OD value in step 6/OD value in step 7.

JAK1/JAK2 pathway = assay: Western blot p-STAT1/STAT1 in IFN-γ-stimulated HT-29 cells; type: cell-based; conditions: IFN-γ 100 ng/mL
Experimental: HT-29 cells were digested by trypsin and suspended in Dulbecco's Modified Eagle Medium (DMEM) and counted. The tested compounds were added into the 6 well plates (400 000/per well). After 2 hours, IFN-γ (100 ng/mL) was added to stimulate cells for 30 minutes. The cells were collected and lysed with protein lysate. The protein was quantitatively tested by BCA kit. Finally, p-STAT1/STAT1 and internal reference protein β-actin were detected by Western blot.

TYK2/JAK2 pathway = assay: Western blot p-STAT4/STAT4 in IL-12-stimulated mouse spleen cells; type: cell-based, mice; conditions: IL-12 50 ng/mL
Experimental: The spleen of mice was isolated and ground into single cells with bent tweezers. The single cells of the spleen were centrifuged for 5 minutes (400 g), and erythrocytes were lysed with Ammonium-Chloride-Potassium (ACK) solution and neutralized in 1640 medium, centrifuged for 5 minutes (400 g), and then re-suspended in 1640 medium. The spleen single cell suspension was counted, transferred to and incubated on a 6-well plate (5 million/well). The compounds to be tested were added. After 2 hours, IL-12 (50 ng/mL) was added to stimulate the cells for 1 h. The cells were collected and lysed with protein lysate. The protein was quantitatively tested by BCA kit. Finally, p-STAT4/STAT4 and internal reference protein […] were detected by Western blot.

JAK2/JAK2 pathway = assay: Western blot p-STAT3/STAT3 in TPO-stimulated HEL cells; type: cell-based; conditions: TPO 100 ng/mL
Experimental: HEL cells were digested by trypsin, re-suspended in 1640 medium and counted. The compounds to be measured were added to 6 well plates (1 million/per well) for 2 hours, and then thrombopoietin (TPO)(final concentration: 100 ng/mL) was added to stimulate cells for 30 minutes. The cells were collected and lysed with protein lysate. The protein was quantitatively tested by bicinchoninic acid (BCA) kit. Finally, p-STAT3/STAT3 and internal reference protein β-actin were detected by Western blot.

JAK2 and TYK2 = conditions: some studies, background; cited from earlier work
[2] = system: IFNα induced CXCL-10 in PBMC; assay: ELISA of IFNα induced CXCL-10 in PBMC; type: cell-based; conditions: IFNα induced CXCL-10 in PBMC
Experimental: • 1. Soak plate: Add 300 μL 1× washing solution and let stand for 30 seconds. After discarding the washing solution, anhydrous the microporous plate on absorbent paper. • 2. Add standard: Add 100 μL of 2-fold standard to standard well. Add 100 μL standard dilution (serum/plasma sample) or culture medium (cell culture supernatant sample) to blank well. • 3. Add sample: Serum/plasma: Add 50 μL 1× assay buffer and 50 μL sample to sample well. Cell culture supernatant: Add 100 μL cell culture supernatant to sample well. • 4. Add detection antibody: Add 50 μL diluted detection antibody (1:100 diluted) to each well. Make sure steps 4, 5 and 6 are added continuously without interruption. The sampling process was completed within 15 minutes. • 5. Incubation: Use sealing plate film to seal the plate. Shake at 300 rpm and incubate for 2 hours at room temperature. • 6. Washing: Discard the liquid, add 300 μL of washing solution and wash the plate 6 times. Pat anhydrous on blotting paper after each wash. To obtain the desired experimental performance, the residual liquid must be completely removed. • 7. Enzyme addition: Add 100 μL diluted horseradish peroxidase labeled streptavidin to each well (1:100 diluted). • 8. Incubation: Seal the plate with a new sealing film. Shake at 300 rpm and incubate at room temperature for 45 minutes. • 9. Washing: Repeat […]. • 10. Add substrate for color development: Add 100 μL of color development substrate TMB to each well, keep away from light, and incubate at room temperature for 5-30 minutes. • 11. Add Stop Solution: Add 100 μL stop solution to each well. The color changed from blue to yellow. If the color appears green or the color changes unevenly, gently tap the frame of the plate to mix well. • 12. Assay readout: Within 30 minutes, perform dual wavelength detection using a microplate reader to measure the OD at the absorption maximum at 450 nm and reference wavelengths at 570 nm or 630 nm. The calibrated OD value is the measured value at 450 nm minus the measured value at 570 nm or 630 nm.

Row | Compound | inhibition at 0.05 µM ([1]; 50 nM compound) [%] | inhibition at 0.2 µM ([1]; 200 nM compound) [%] | inhibition at 1 µM ([1]; 1000 nM compound) [%] | effect on downstream STAT1 phosphorylation induced by IFN-γ (JAK1/JAK2 pathway) (JAK1/JAK2 pathway) | inhibition of downstream STAT4 phosphorylation induced by IL-12 (TYK2/JAK2 pathway) (TYK2/JAK2 pathway) | effect on TPO-induced downstream STAT3 phosphorylation (JAK2/JAK2 pathway) (JAK2/JAK2 pathway) | ratio of JAK2 IC50/TYK2 IC50 (JAK2 and TYK2) | Inhibitory activity % (50 nM) ([1]; 50 nM compound) [%] | Inhibitory activity % (200 nM) ([1]; 200 nM compound) [%] | Inhibitory activity % (1000 nM) ([1]; 1000 nM compound) [%] | IC50 [2] [nM]
1 | COc1c(Nc2cc(NC(=O)C3CC3)nnc2C(N)=O)cc(F)cc1-c1cc(P(=O)(C2CC2)C2CC2)n(C)n1 [Compound A8] | 84 | 88 | 96 | inhibited JAK1/JAK2 pathway in a concentration-dependent manner | effectively inhibited the downstream STAT4 phosphorylation induced by IL-12 |  |  |  |  |  | 
2 | COc1c(Nc2cc(Nc3ccc(F)cn3)nnc2C(N)=O)cccc1-c1cc(P(=O)(C2CC2)C2CC2)n(C)n1 [Compound A9] |  |  |  | inhibited JAK1/JAK2 pathway in a concentration-dependent manner | effectively inhibited the downstream STAT4 phosphorylation induced by IL-12 |  |  |  |  |  | 
3 | COc1c(Nc2cc(Nc3cc(C)ccn3)nnc2C(N)=O)cccc1-c1cc(P(=O)(C2CC2)C2CC2)n(C)n1 [Compound A12] | 25 | 33 | 93 | inhibited JAK1/JAK2 pathway in a concentration-dependent manner | effectively inhibited the downstream STAT4 phosphorylation induced by IL-12 | had no effect on TPO-induced downstream STAT3 phosphorylation |  |  |  |  | 
4 | COc1c(Nc2cc(Nc3ccn(C)n3)nnc2C(N)=O)cccc1-c1cc(P(=O)(C2CC2)C2CC2)n(C)n1 [Compound A17] |  | 42 | 82 | inhibited JAK1/JAK2 pathway in a concentration-dependent manner | effectively inhibited the downstream STAT4 phosphorylation induced by IL-12 | had no effect on TPO-induced downstream STAT3 phosphorylation |  |  |  |  | 
5 | COc1c(Nc2cc(Nc3cc(C)ccn3)nnc2C(N)=O)cccc1-c1cc(P(C)(C)=O)n(C)n1 [Compound A29] |  |  | 93 | inhibited JAK1/JAK2 pathway in a concentration-dependent manner | effectively inhibited the downstream STAT4 phosphorylation induced by IL-12 | had no effect on TPO-induced downstream STAT3 phosphorylation |  |  |  |  | 
6 | COc1c(Nc2cc(Nc3cc(C#N)ccn3)nnc2C(N)=O)cccc1-c1cc(P(=O)(C2CC2)C2CC2)n(C)n1 [Compound A35] | 54 | 84 | 98 | inhibited JAK1/JAK2 pathway in a concentration-dependent manner | effectively inhibited the downstream STAT4 phosphorylation induced by IL-12 | had no effect on TPO-induced downstream STAT3 phosphorylation |  |  |  |  | 
7 | [2H]C([2H])([2H])n1nc(-c2cccc(Nc3cc(Nc4cc(C#N)ccn4)nnc3C(N)=O)c2OC)cc1P(=O)(C1CC1)C1CC1 [Compound A49] | 33 | 86 | 87 | inhibited JAK1/JAK2 pathway in a concentration-dependent manner | effectively inhibited the downstream STAT4 phosphorylation induced by IL-12 | had no effect on TPO-induced downstream STAT3 phosphorylation |  |  |  |  | 
8 | [2H]C([2H])([2H])n1nc(-c2cccc(Nc3cc(Nc4ccc(OC)cn4)nnc3C(N)=O)c2OC)cc1P(=O)(C1CC1)C1CC1 [Compound A50] |  |  | 77 | inhibited JAK1/JAK2 pathway in a concentration-dependent manner | effectively inhibited the downstream STAT4 phosphorylation induced by IL-12 | had no effect on TPO-induced downstream STAT3 phosphorylation |  |  |  |  | 
9 | Cn1cc(Nc2nccc(N3C[C@H]4CC[C@@H](C3)N4C(=O)[C@@H]3CC3(F)F)n2)cn1 [PF-06700841] |  |  |  |  |  |  | about 3.3 |  |  |  | 
10 | BMS986165 [reference compound] |  |  |  | had no effect on downstream STAT1 phosphorylation induced by IFN-γ |  | had no effect on TPO-induced downstream STAT3 phosphorylation |  | 62 | 94 | 99 | 16.6

Reference: US20260001898A1, “Heteroaryl compounds as inhibitors of TYK2/JAK1, composition and application thereof” (Accro Bioscience (HK) Limited, priority 2022, published 2026)
